From patent US4032544A, “3-Cyano-4-hydroxy coumarin derivatives” (Beecham Group Limited, priority 1974, dated 1977)

test system: PCA response; assay: rat Passive Cutaneous Anaphylaxis Test (PCA test); assay type: in vivo, rat (male Wistar); details: sc, 0 h, 25 mg/kg, 0 mins. prior to challenge, subcutaneous, sodium salt
Description: The compounds prepared in the preceding examples were tested in the rat Passive Cutaneous Anaphylaxis Test (PCA test), described below. They were administered as their sodium salts either in pH 7.2 phosphate buffer (for soluble salts) or as a suspension in 1% methyl cellulose (for insoluble salts).
Male Wistar rats of 250-300 g, were injected intraperitoneally with 0.5 ml. of Bordatella pertussis vaccine (containing 4× 10^10 dead organism per ml) and subcutaneously with 0.5 ml. of an emulsion of 100 mg. of ovalbumin in 2 ml. of saline and 3 ml. of incomplete Freunds' adjuvant. Rats were bled by cardiac puncture on day 18, the blood was pooled and separated and serum stored at -20° and thawed only once before use.
0.1 ml. of each of six twofold serial dilutions of the serum in 0.9% saline were injected intradermally into separate sites on the shaved dorsal surface of 250-350 g. Male Wistar rats. 72 hours later the animals were challenged by i.v. injection of 0.3 ml. of 1% ovalbumin mixed with 0.1 ml. of a 5% solution of pontamine sky blue dye both in isotonic saline buffered with pH 7.2 Sorenson buffer (P.B.S.). The rats were killed after 20 minutes and the diameter of the blue wheals at the antibody injection sites were measured. The starting dilution of the serum was adjusted so that there was no response, after challenge, at the site of injection of the highest dilution and a maximum response at the two or three lowest dilutions.
Amounts of the compounds were administered to rats by subcutaneous injection, into the nucal region, of a solution of the compound in P.B.S. or as a suspension in 1% methyl cellulose, each amount a test group of six animals at a specified time prior to intravenous challenge with ovalbumin.
% Inhibition of P.C.A.= 100 (1 -a/b)
For those compounds having insoluble sodium salts, the salts were isolated by reaction of the free cyano compound with 2.5N sodium hydroxide and the filtered sodium salt washed free of alkali with water. The dried salts were then administered as a suspension in 1% methyl cellulose.

Structure (SMILES)	inhibition in vivo at 25 mg/kg [%]
CCc1ccc2c(O)c(C#N)c(=O)oc2c1 [Example 15, 3-Cyano-7-ethyl-4-hydroxy coumarin]	34
Cc1ccc2c(O)c(C#N)c(=O)oc2c1 [Example 14, 3-Cyano-4-hydroxy-7-methyl coumarin]	45
N#CC1C(=O)c2ccccc2C1=O [Example 1, 2-Cyano indan-1,3-dione]	43
N#Cc1c(O)c2cc3ccccc3cc2oc1=O [Example 17, 3-Cyano-4-hydroxy-2-oxo-2H-naphtho[2,3-b] pyran]	9
COc1ccc2oc(=O)c(C#N)c(O)c2c1 [Example 20, 3-Cyano-4-hydroxy-6-methyloxycoumarin]	54
Cc1ccc2oc(=O)c(C#N)c(O)c2c1 [Example 13, 3-Cyano-4-hydroxy-6-methyl coumarin]	14
N#Cc1c(O)c2ccccc2oc1=O [Example 9, 3-Cyano-4-hydroxycoumarin]	64
Cc1ccc2c(c1)C(=O)C(C#N)C2=O (stereo not shown) [Example 2, 2-Cyano-5-methyl indan-1,3-dione]	45
Cc1cc2oc(=O)c(C#N)c(O)c2cc1C [Example 11, 3-Cyano-6,7-dimethyl-4-hydroxycoumarin monohydrate]	51
Cc1cccc2c(O)c(C#N)c(=O)oc12 [Example 19, 3-Cyano-4-hydroxy-8-methylcoumarin monohydrate]	48

same assay, conditions: sc, 0 h, 100 mg/kg, 0 mins. prior to challenge, subcutaneous, sodium salt

Structure (SMILES)	inhibition in vivo at 100 mg/kg [%]
CCc1ccc2c(O)c(C#N)c(=O)oc2c1 [Example 15, 3-Cyano-7-ethyl-4-hydroxy coumarin]	64
Cc1ccc2c(O)c(C#N)c(=O)oc2c1 [Example 14, 3-Cyano-4-hydroxy-7-methyl coumarin]	74
N#CC1C(=O)c2ccccc2C1=O [Example 1, 2-Cyano indan-1,3-dione]	64
N#Cc1c(O)c2cc3ccccc3cc2oc1=O [Example 17, 3-Cyano-4-hydroxy-2-oxo-2H-naphtho[2,3-b] pyran]	15
COc1ccc2oc(=O)c(C#N)c(O)c2c1 [Example 20, 3-Cyano-4-hydroxy-6-methyloxycoumarin]	72
Cc1ccc2oc(=O)c(C#N)c(O)c2c1 [Example 13, 3-Cyano-4-hydroxy-6-methyl coumarin]	40
N#Cc1c(O)c2ccccc2oc1=O [Example 9, 3-Cyano-4-hydroxycoumarin]	87
Cc1ccc2c(c1)C(=O)C(C#N)C2=O (stereo not shown) [Example 2, 2-Cyano-5-methyl indan-1,3-dione]	76
Cc1cc2oc(=O)c(C#N)c(O)c2cc1C [Example 11, 3-Cyano-6,7-dimethyl-4-hydroxycoumarin monohydrate]	72
Cc1cccc2c(O)c(C#N)c(=O)oc12 [Example 19, 3-Cyano-4-hydroxy-8-methylcoumarin monohydrate]	67

same assay, conditions: sc, 0.5 h, 25 mg/kg, 30 mins. prior to challenge, subcutaneous, sodium salt

Structure (SMILES)	inhibition in vivo at 25 mg/kg [%]
CCc1ccc2c(O)c(C#N)c(=O)oc2c1 [Example 15, 3-Cyano-7-ethyl-4-hydroxy coumarin]	27
Cc1ccc2c(O)c(C#N)c(=O)oc2c1 [Example 14, 3-Cyano-4-hydroxy-7-methyl coumarin]	14
N#CC1C(=O)c2ccccc2C1=O [Example 1, 2-Cyano indan-1,3-dione]	8
COc1ccc2oc(=O)c(C#N)c(O)c2c1 [Example 20, 3-Cyano-4-hydroxy-6-methyloxycoumarin]	29
Cc1ccc2oc(=O)c(C#N)c(O)c2c1 [Example 13, 3-Cyano-4-hydroxy-6-methyl coumarin]	21
N#Cc1c(O)c2ccccc2oc1=O [Example 9, 3-Cyano-4-hydroxycoumarin]	30
Cc1ccc2c(c1)C(=O)C(C#N)C2=O (stereo not shown) [Example 2, 2-Cyano-5-methyl indan-1,3-dione]	15
Cc1cc2oc(=O)c(C#N)c(O)c2cc1C [Example 11, 3-Cyano-6,7-dimethyl-4-hydroxycoumarin monohydrate]	16
Cc1cccc2c(O)c(C#N)c(=O)oc12 [Example 19, 3-Cyano-4-hydroxy-8-methylcoumarin monohydrate]	23

same assay, conditions: sc, 0.5 h, 100 mg/kg, 30 mins. prior to challenge, subcutaneous, sodium salt

Structure (SMILES)	inhibition in vivo at 100 mg/kg [%]
CCc1ccc2c(O)c(C#N)c(=O)oc2c1 [Example 15, 3-Cyano-7-ethyl-4-hydroxy coumarin]	17
Cc1ccc2c(O)c(C#N)c(=O)oc2c1 [Example 14, 3-Cyano-4-hydroxy-7-methyl coumarin]	18
N#CC1C(=O)c2ccccc2C1=O [Example 1, 2-Cyano indan-1,3-dione]	16
COc1ccc2oc(=O)c(C#N)c(O)c2c1 [Example 20, 3-Cyano-4-hydroxy-6-methyloxycoumarin]	36
Cc1ccc2oc(=O)c(C#N)c(O)c2c1 [Example 13, 3-Cyano-4-hydroxy-6-methyl coumarin]	22
N#Cc1c(O)c2ccccc2oc1=O [Example 9, 3-Cyano-4-hydroxycoumarin]	40
Cc1ccc2c(c1)C(=O)C(C#N)C2=O (stereo not shown) [Example 2, 2-Cyano-5-methyl indan-1,3-dione]	35
Cc1cc2oc(=O)c(C#N)c(O)c2cc1C [Example 11, 3-Cyano-6,7-dimethyl-4-hydroxycoumarin monohydrate]	11
Cc1cccc2c(O)c(C#N)c(=O)oc12 [Example 19, 3-Cyano-4-hydroxy-8-methylcoumarin monohydrate]	35

same assay, conditions: sc, 1 h, 25 mg/kg, 60 mins. prior to challenge, subcutaneous, sodium salt

Structure (SMILES)	inhibition in vivo at 25 mg/kg [%]
N#Cc1c(O)c2cc3ccccc3cc2oc1=O [Example 17, 3-Cyano-4-hydroxy-2-oxo-2H-naphtho[2,3-b] pyran]	23

same assay, conditions: sc, 1 h, 100 mg/kg, 60 mins. prior to challenge, subcutaneous, sodium salt

Structure (SMILES)	inhibition in vivo at 100 mg/kg [%]
N#Cc1c(O)c2cc3ccccc3cc2oc1=O [Example 17, 3-Cyano-4-hydroxy-2-oxo-2H-naphtho[2,3-b] pyran]	18
